pIC50: −log10 of the molar value.
What follows are compounds tested on HeLa (assay: Proliferation assay (crystal violet), HeLa). Conditions: Homo sapiens, HeLa, 96 h, HeLa cells; 4 days incubation; crystal violet staining; read-out: IC50 inhibition of proliferation, HeLa.
Type: cell-based
In short: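 Crystal violet proliferation readout, 4-day compound incubation, 0.001–10 μM, final DMSO 0.5%. Zero-point plate stained at time of dosing set as 0%, untreated control as 100%; IC50 via 4-parameter fit.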

SMILES | pIC50
Cc1nsc(Nc2cnc(C(F)(F)F)cn2)c1C(=O)Nc1ccc(F)c(OC2CCN(CC(F)F)CC2)c1 [Example 265, N-(3-{[1-(2,2-difluoroethyl)piperidin-4-yl]oxy}-4-fluorophenyl)-3-methyl-5-{[5-(trifluoromethyl)pyrazin-2-yl]amino}-1,2-thiazole-4-carboxamide] | 6.49
Cc1nsc(Nc2cnc(C(F)(F)F)cn2)c1C(=O)Nc1ccc(F)c(OC2CCN(CCF)CC2)c1 [Example 266, N-(4-fluoro-3-{[1-(2-fluoroethyl)piperidin-4-yl]oxy}phenyl)-3-methyl-5-{[5-(trifluoromethyl)pyrazin-2-yl]amino}-1,2-thiazole-4-carboxamide] | 6.51
Cc1nsc(Nc2cncc(C(F)(F)F)n2)c1C(=O)Nc1ccc(F)c(OC2CCN(CC(F)(F)F)CC2)c1 [Example 267, N-(4-fluoro-3-{[1-(2,2,2-trifluoroethyl)piperidin-4-yl]oxy}phenyl)-3-methyl-5-{[6-(trifluoromethyl)pyrazin-2-yl]amino}-1,2-thiazole-4-carboxamide] | 6.24
Cc1nsc(Nc2cncc(C(F)(F)F)n2)c1C(=O)Nc1ccc(F)c(OC2CCN(CC(F)F)CC2)c1 [Example 268, N-(3-{[1-(2,2-difluoroethyl)piperidin-4-yl]oxy}-4-fluorophenyl)-3-methyl-5-{[6-(trifluoromethyl)pyrazin-2-yl]amino}-1,2-thiazole-4-carboxamide] | 6.51
Cc1nsc(Nc2cncc(C(F)(F)F)n2)c1C(=O)Nc1ccc(F)c(OC2CCN(CCF)CC2)c1 [Example 269, N-(4-fluoro-3-{[1-(2-fluoroethyl)piperidin-4-yl]oxy}phenyl)-3-methyl-5-{[6-(trifluoromethyl)pyrazin-2-yl]amino}-1,2-thiazole-4-carboxamide] | 6.08
Cc1nsc(Nc2cnc(C(F)(F)F)cn2)c1C(=O)Nc1ccc(C(=O)NC2CN(CC(F)(F)F)C2)cc1 [Example 270, 3-methyl-N-(4-{[1-(2,2,2-trifluoroethyl)azetidin-3-yl]carbamoyl}phenyl)-5-{[5-(trifluoromethyl)pyrazin-2-yl]amino}-1,2-thiazole-4-carboxamide] | < 5.00
Cc1nsc(Nc2cnc(C(F)(F)F)cn2)c1C(=O)Nc1ccc(C(=O)NC2CN(CC(F)F)C2)cc1 [Example 271, N-(4-{[1-(2,2-difluoroethyl)azetidin-3-yl]carbamoyl}phenyl)-3-methyl-5-{[5-(trifluoromethyl)pyrazin-2-yl]amino}-1,2-thiazole-4-carboxamide] | 5.03
Cc1nsc(Nc2cncc(C(F)(F)F)n2)c1C(=O)Nc1ccc(C(=O)N2CCN(CC(F)(F)F)CC2)cc1 [Example 272, 3-methyl-N-(4-{[4-(2,2,2-trifluoroethyl)piperazin-1-yl]carbonyl}phenyl)-5-{[6-(trifluoromethyl)pyrazin-2-yl]amino}-1,2-thiazole-4-carboxamide] | 5.24
Cc1nsc(Nc2cncc(C(F)(F)F)n2)c1C(=O)Nc1ccc(C(=O)N2CCN(CC(F)F)CC2)cc1 [Example 273, N-(4-{[4-(2,2-difluoroethyl)piperazin-1-yl]carbonyl}phenyl)-3-methyl-5-{[6-(trifluoromethyl)pyrazin-2-yl]amino}-1,2-thiazole-4-carboxamide] | 5.12
Cc1nsc(Nc2cncc(C(F)(F)F)n2)c1C(=O)Nc1ccc(C(=O)N2CCN(CCF)CC2)cc1 [Example 274, N-(4-{[4-(2-fluoroethyl)piperazin-1-yl]carbonyl}phenyl)-3-methyl-5-{[6-(trifluoromethyl)pyrazin-2-yl]amino}-1,2-thiazole-4-carboxamide] | < 5.00
CCN1CCN(C(=O)c2ccc(NC(=O)c3c(C)nsc3Nc3cncc(C(F)(F)F)n3)cc2)CC1 [Example 275, N-{4-[(4-ethylpiperazin-1-yl)carbonyl]phenyl}-3-methyl-5-{[6-(trifluoromethyl)pyrazin-2-yl]amino}-1,2-thiazole-4-carboxamide] | < 5.00
Cc1nsc(Nc2cncc(C(F)(F)F)n2)c1C(=O)Nc1ccc(OCCO)nc1 [Example 276, N-[6-(2-hydroxyethoxy)pyridin-3-yl]-3-methyl-5-{[6-(trifluoromethyl)pyrazin-2-yl]amino}-1,2-thiazole-4-carboxamide] | 5.31

Further lines, results first:

pIC50 | SMILES
5.49 | Cc1nsc(Nc2cnc(C(F)(F)F)cn2)c1C(=O)Nc1ccc(OCCO)nc1 [Example 277, N-[6-(2-hydroxyethoxy)pyridin-3-yl]-3-methyl-5-{[5-(trifluoromethyl)pyrazin-2-yl]amino}-1,2-thiazole-4-carboxamide]
5.59 | Cc1nsc(Nc2cncc(C(F)(F)F)n2)c1C(=O)Nc1ccc(OCCCO)nc1 [Example 278, N-[6-(3-hydroxypropoxy)pyridin-3-yl]-3-methyl-5-{[6-(trifluoromethyl)pyrazin-2-yl]amino}-1,2-thiazole-4-carboxamide]
5.66 | Cc1nsc(Nc2cnc(C(F)(F)F)cn2)c1C(=O)Nc1ccc(OCCCO)nc1 [Example 279, N-[6-(3-hydroxypropoxy)pyridin-3-yl]-3-methyl-5-{[5-(trifluoromethyl)pyrazin-2-yl]amino}-1,2-thiazole-4-carboxamide]
< 5.00 | Cc1nsc(Nc2cncc(C(F)(F)F)n2)c1C(=O)Nc1ccc(C(=O)NC2CN(CC(F)(F)F)C2)cc1 [Example 280, 3-methyl-N-(4-{[1-(2,2,2-trifluoroethyl)azetidin-3-yl]carbamoyl}phenyl)-5-{[6-(trifluoromethyl)pyrazin-2-yl]amino}-1,2-thiazole-4-carboxamide]
5.10 | Cc1nsc(Nc2cnc3ccccc3n2)c1C(=O)Nc1cccc(NS(=O)(=O)C2CCN(CC(F)(F)F)CC2)c1 [Example 281, 3-methyl-5-(quinoxalin-2-ylamino)-N-[3-({[1-(2,2,2-trifluoroethyl)piperidin-4-yl]sulfonyl}amino)phenyl]-1,2-thiazole-4-carboxamide]
5.21 | Cc1nsc(Nc2cnc3ccccc3n2)c1C(=O)Nc1cccc(NS(=O)(=O)C2CCN(CC(F)F)CC2)c1 [Example 282, N-[3-({[1-(2,2-difluoroethyl)piperidin-4-yl]sulfonyl}amino)phenyl]-3-methyl-5-(quinoxalin-2-ylamino)-1,2-thiazole-4-carboxamide]
5.08 | Cc1nsc(Nc2cnc3ccccc3n2)c1C(=O)Nc1cccc(NS(=O)(=O)C2CCN(CCC(F)(F)F)CC2)c1 [Example 283, 3-methyl-5-(quinoxalin-2-ylamino)-N-[3-({[1-(3,3,3-trifluoropropyl)piperidin-4-yl]sulfonyl}amino)phenyl]-1,2-thiazole-4-carboxamide]
6.27 | Cc1nsc(Nc2cnc(C(F)(F)F)cn2)c1C(=O)Nc1cccc(NC(=O)OC(C)(C)C)c1 [Example 284, 3-tert-butyl (3-{[(3-methyl-5-{[5-(trifluoromethyl)pyrazin-2-yl]amino}-1,2-thiazol-4-yl)carbonyl]amino}phenyl)carbamate]
< 5.00 | Cc1nsc(Nc2cnc3ccccc3n2)c1C(=O)Nc1cccc(NS(=O)(=O)C2CN(CC(F)(F)F)C2)c1 [Example 285, 3-methyl-5-(quinoxalin-2-ylamino)-N-[3-({[1-(2,2,2-trifluoroethyl)azetidin-3-yl]sulfonyl}amino)phenyl]-1,2-thiazole-4-carboxamide]
5.00 | Cc1nsc(Nc2cnc3ccccc3n2)c1C(=O)Nc1cccc(NS(=O)(=O)C2CN(CC(F)F)C2)c1 [Example 286, N-[3-({[1-(2,2-difluoroethyl)azetidin-3-yl]sulfonyl}amino)phenyl]-3-methyl-5-(quinoxalin-2-ylamino)-1,2-thiazole-4-carboxamide]
5.00 | Cc1nsc(Nc2cnc3ccccc3n2)c1C(=O)Nc1cccc(NS(=O)(=O)C2CN(CCF)C2)c1 [Example 287, N-[3-({[1-(2-fluoroethyl)azetidin-3-yl]sulfonyl}amino)phenyl]-3-methyl-5-(quinoxalin-2-ylamino)-1,2-thiazole-4-carboxamide]
5.00 | Cc1nsc(Nc2cnc3ccccc3n2)c1C(=O)Nc1cccc(NS(=O)(=O)C2CN(CCC(F)(F)F)C2)c1 [Example 288, 3-methyl-5-(quinoxalin-2-ylamino)-N-[3-({[1-(3,3,3-trifluoropropyl)azetidin-3-yl]sulfonyl}amino)phenyl]-1,2-thiazole-4-carboxamide]
5.11 | Cc1nsc(Nc2cnc3ccccc3n2)c1C(=O)Nc1cccc(NS(=O)(=O)C2CCN(CC(F)(F)F)C2)c1 (centres unmarked) [Example 289, 3-methyl-5-(quinoxalin-2-ylamino)-N-[3-({[1-(2,2,2-trifluoroethyl)pyrrolidin-3-yl]sulfonyl}amino)phenyl]-1,2-thiazole-4-carboxamide]
5.06 | Cc1nsc(Nc2cnc3ccccc3n2)c1C(=O)Nc1cccc(NS(=O)(=O)C2CCN(C(=O)OC(C)(C)C)C2)c1 (centres unmarked) [Example 290, tert-butyl 3-{[3-({[3-methyl-5-(quinoxalin-2-ylamino)-1,2-thiazol-4-yl]carbonyl}amino)phenyl]sulfamoyl} pyrrolidine-1-carboxylate]
5.05 | Cc1nsc(Nc2cnc3ccccc3n2)c1C(=O)Nc1cccc(NS(=O)(=O)C2CCCN(C(=O)OCc3ccccc3)C2)c1 (centres unmarked) [Example 291, benzyl 3-{[3-({[3-methyl-5-(quinoxalin-2-ylamino)-1,2-thiazol-4-yl]carbonyl}amino)phenyl]sulfamoyl} piperidine-1-carboxylate]
5.74 | Cc1nsc(Nc2cnc(C(F)(F)F)cn2)c1C(=O)Nc1ccc(OCCCNCC(F)(F)F)nc1 [Example 292, 3-methyl-N-(6-{3-[(2,2,2-trifluoroethyl)amino]propoxy}pyridin-3-yl)-5-{[5-(trifluoromethyl)pyrazin-2-yl]amino}-1,2-thiazole-4-carboxamide]
5.28 | Cc1nsc(Nc2cnc(C(F)(F)F)cn2)c1C(=O)Nc1ccc(OCCCNCC(F)F)nc1 [Example 293, N-(6-{3-[(2,2-difluoroethyl)amino]propoxy}pyridin-3-yl)-3-methyl-5-{[5-(trifluoromethyl)pyrazin-2-yl]amino}-1,2-thiazole-4-carboxamide]

Source: patent US20170334899A1, “AMINO-SUBSTITUTED ISOTHIAZOLES” (Bayer Pharma Aktiengesellschaft, priority 2014, published 2017)
